Assay results taken from patent US10301280B2 (Plexxikon Inc., priority 2012, dated 2019).

System: BaF3-FL KIT D816V or BaF3-FL KIT V560G/D816V cell line
Experiment: Cell-based assays of c-Kit mutant kinase activity (cell growth, ATPlite)
Conditions: at least one of the c-kit cell assays of Example 26
Description: The c-Kit mutant D816V inhibitors were assessed using an engineered BaF3-FL KIT D816V or BaF3-FL KIT V560G/D816V cell line. The BaF3-FL KIT D816V cell lines were created by introduction of KIT mutant (D816V) full length constructs that render the cells dependent on the introduced kinase for growth. Inhibitors of c-Kit mutant D816V kinase reduce or eliminate the mediated c-kit mutant D816V kinase activation, resulting in reduced cell proliferation of the BaF3-FL Kit mutant D816V cells. This inhibition is measured by the effect of compound concentration on cell growth to assess IC50 values. BaF3-FL KIT D816V cells were seeded at 1×10^4 cells per well of a 96 well cell culture plate in 50 μl of cell culture medium of RPMI Medium 1X (Invitrogen #11875-093) supplemented with 10% FBS (Invitrogen #10438), 1% Non Essential Amino Acids(Invitrogen #11140), 1% Penicillin Streptomycin (Invitrogen #15140), 1% L-Glutamine (Invitrogen #25030-081). Compounds were dissolved in DMSO at a concentration of 5 mM and were serially diluted 1:3 for a total of eight points and added to the cells to a final maximum concentration of 10 μM in 100 μl cell culture medium (final concentration 0.2% DMSO). Cells were also treated with Dasatinib as a positive control. The cells were incubated at 37° C., 5% CO2 for three days. ATPlite Buffer (Perkin Elmer #6016739) and substrate were equilibrated to room temperature, and enzyme/substrate Recombinant Firefly Luciferase/D-Luciferin was reconstituted. The cell plates were equilibrated to room temperature for 30 minutes, then lysed by addition of 25 uL per well of the ATPlite Reagent. The plate was mixed for 5 minutes on a plate shaker to lyse the cells. The plates were read on a Tecan Safire using Luminescence protocol modified to read 0.1 s per well. The luminescence reading assesses the ATP content, which correlates directly with cell number such that the reading as a function of compound concentration is used to determine the IC50 value.
Plasmids P75635 and P75565 were engineered for mammalian cell expression. In both plasmids, full-length human v-kit Hardy-Zuckerman 4 feline sarcoma viral oncogene homolog gene (NCBI accession NM_000222, KIT, residues M1-V976) was subcloned into the pCI-Neo vector (Promega E1841). Plasmid P75635 contains the mutation of residue Aspartic acid 816 to Valine. Plasmid P75565 contains the double mutation of residues Valine 560 to Glycine and Aspartic acid 816 to Valine. The pCI-neo Mammalian Expression Vector carries the human cytomegalovirus (CMV) immediate-early enhancer/promoter region to promote constitutive expression of KIT and contains the neomycin phosphotransferase gene, a selectable marker.
It is understood that the results of these assays may vary as assay conditions are varied. Inhibition levels determined under the conditions described herein represent a relative activity for the compounds tested under the specific conditions employed. The cell based assays are likely to show variability due to the complexity of the system and the sensitivity thereof to any changes in the assay conditions. […] In some instances, the compounds were not tested in all of the assays, or assay results were not valid.

IC50 [µM]	SMILES
< 10	O=C(Nc1cnc2[nH]c(-c3ccc(F)cc3)cc2c1)c1cc(C(F)(F)F)n[nH]1 [P-2156, N-[2-(4-fluorophenyl)-1H-pyrrolo[2,3-b]pyridin-5-yl]-3-(trifluoromethyl)-1H-pyrazole-5-carboxamide]
< 10	Cc1n[nH]c(C(=O)Nc2cnc3[nH]c(-c4cccc(C(=O)N(C)C)c4)cc3c2)c1C [P-2087, N-[2-[3-(dimethylcarbamoyl)phenyl]-1H-pyrrolo[2,3-b]pyridin-5-yl]-3,4-dimethyl-1H-pyrazole-5-carboxamide]
< 10	Cc1[nH]nc(C(=O)Nc2cnc3[nH]c(-c4ccnc(N5CCC(C)CC5)c4)cc3c2)c1C [P-2210, 4,5-dimethyl-N-(2-(2-(4-methylpiperidin-1-yl)pyridin-4-yl)-1H-pyrrolo[2,3-b]pyridin-5-yl)-1H-pyrazole-3-carboxamide]
< 10	Cc1n[nH]c(C(=O)Nc2cnc3[nH]c(-c4ccc(C(=O)N5CCSCC5)cc4)cc3c2)c1C [P-2105, 3,4-dimethyl-N-[2-[4-(thiomorpholine-4-carbonyl)phenyl]-1H-pyrrolo[2,3-b]pyridin-5-yl]-1H-pyrazole-5-carboxamide]
< 10	Cc1[nH]nc(C(=O)Nc2cnc3[nH]c(-c4ccnc(N5CCCCC5)c4)cc3c2)c1C [P-2209, 4,5-dimethyl-N-(2-(2-(piperidin-1-yl)pyridin-4-yl)-1H-pyrrolo[2,3-b]pyridin-5-yl)-1H-pyrazole-3-carboxamide]
< 10	Cc1[nH]nc(C(=O)Nc2cnc3[nH]c(-c4ccc(F)c(C#N)c4F)cc3c2)c1C [P-2261, N-(2-(3-cyano-2,4-difluorophenyl)-1H-pyrrolo[2,3-b]pyridin-5-yl)-4,5-dimethyl-1H-pyrazole-3-carboxamide]
< 10	Cc1n[nH]c(C(=O)Nc2cnc3[nH]c(-c4ccnc(C5CC5)c4)cc3c2)c1C [P-2108, N-[2-(2-cyclopropyl-4-pyridyl)-1H-pyrrolo[2,3-b]pyridin-5-yl]-3,4-dimethyl-1H-pyrazole-5-carboxamide]
< 10	CCCc1cc(C(=O)Nc2cnc3[nH]c(-c4ccc(F)cc4)cc3c2)[nH]n1 [P-2132, N-[2-(4-fluorophenyl)-1H-pyrrolo[2,3-b]pyridin-5-yl]-3-propyl-1H-pyrazole-5-carboxamide]
< 10	Cc1cccc(-c2cc3cc(NC(=O)c4[nH]nc(C)c4C)cnc3[nH]2)c1 [P-2130, 3,4-dimethyl-N-[2-(m-tolyl)-1H-pyrrolo[2,3-b]pyridin-5-yl]-1H-pyrazole-5-carboxamide]
< 10	Cc1n[nH]c(C(=O)Nc2cnc3[nH]c(-c4ccc(N5CCN(C)CC5)cc4)cc3c2)c1C [P-2104, 3,4-dimethyl-N-[2-[4-(4-methylpiperazin-1-yl)phenyl]-1H-pyrrolo[2,3-b]pyridin-5-yl]-1H-pyrazole-5-carboxamide]
< 10	CC(=O)N1CC(n2cc(-c3cc4cc(NC(=O)c5n[nH]c(C)c5C)cnc4[nH]3)c(C)n2)C1 [P-2194, N-(2-(1-(1-acetylazetidin-3-yl)-3-methyl-1H-pyrazol-4-yl)-1H-pyrrolo[2,3-b]pyridin-5-yl)-4,5-dimethyl-1H-pyrazole-3-carboxamide]
< 10	Cc1nn(C2CCN(C(=O)C3CC3)CC2)cc1-c1cc2cc(NC(=O)c3n[nH]c(C)c3C)cnc2[nH]1 [P-2203, N-(2-(1-(1-(cyclopropanecarbonyl)piperidin-4-yl)-3-methyl-1H-pyrazol-4-yl)-1H-pyrrolo[2,3-b]pyridin-5-yl)-4,5-dimethyl-1H-pyrazole-3-carboxamide]
< 10	Cc1[nH]nc(C(=O)Nc2cnc3[nH]c(-c4ccnc(C(=O)N5CCOCC5)c4)cc3c2)c1C [P-2216, 4,5-dimethyl-N-(2-(2-(morpholine-4-carbonyl)pyridin-4-yl)-1H-pyrrolo[2,3-b]pyridin-5-yl)-1H-pyrazole-3-carboxamide]

More lines, now with the values behind:

SMILES	IC50 [µM]
Cc1nn(C2CNC2)cc1-c1cc2cc(NC(=O)c3n[nH]c(C)c3C)cnc2[nH]1 [P-2195, N-(2-(1-(azetidin-3-yl)-3-methyl-1H-pyrazol-4-yl)-1H-pyrrolo[2,3-b]pyridin-5-yl)-4,5-dimethyl-1H-pyrazole-3-carboxamide]	< 10
O=C(c1cccnc1)c1cnc2[nH]c(-c3ccccc3)cc2c1 [P-2002, (2-phenyl-1H-pyrrolo[2,3-b]pyridin-5-yl)-(3-pyridyl)methanone]	< 10
Cc1[nH]nc(C(=O)Nc2cnc3[nH]c(-c4cncc(F)c4)cc3c2)c1C [P-2253, N-(2-(5-fluoropyridin-3-yl)-1H-pyrrolo[2,3-b]pyridin-5-yl)-4,5-dimethyl-1H-pyrazole-3-carboxamide]	< 10
CC(=O)N1CCC(n2ncc(-c3cc4cc(NC(=O)c5n[nH]c(C)c5C)cnc4[nH]3)c2C)CC1 [P-2199, N-(2-(1-(1-acetylpiperidin-4-yl)-5-methyl-1H-pyrazol-4-yl)-1H-pyrrolo[2,3-b]pyridin-5-yl)-4,5-dimethyl-1H-pyrazole-3-carboxamide]	< 10
Cc1[nH]nc(C(=O)Nc2cnc3[nH]c(-c4cncc(C5CC5)c4)cc3c2)c1C [P-2243, N-(2-(5-cyclopropylpyridin-3-yl)-1H-pyrrolo[2,3-b]pyridin-5-yl)-4,5-dimethyl-1H-pyrazole-3-carboxamide]	< 10
Cc1n[nH]c(C(=O)Nc2cnc3[nH]c(-c4ccc(NS(C)(=O)=O)cc4)cc3c2)c1C [P-2111, N-[2-[4-(methanesulfonamido)phenyl]-1H-pyrrolo[2,3-b]pyridin-5-yl]-3,4-dimethyl-1H-pyrazole-5-carboxamide]	< 10
Cn1ncc2c(C(=O)Nc3cnc4[nH]c(-c5ccccc5)cc4c3)cccc21 [P-2298, 1-methyl-N-(2-phenyl-1H-pyrrolo[2,3-b]pyridin-5-yl)indazole-4-carboxamide]	< 10
Cc1[nH]nc(C(=O)Nc2cnc3[nH]c(-c4ccnc(NC(=O)C5CC5)c4)cc3c2)c1C [P-2206, N-(2-(2-(cyclopropanecarboxamido)pyridin-4-yl)-1H-pyrrolo[2,3-b]pyridin-5-yl)-4,5-dimethyl-1H-pyrazole-3-carboxamide]	< 10
Cc1ncccc1-c1cc2cc(NC(=O)c3[nH]nc(C)c3C)cnc2[nH]1 [P-2136, 3,4-dimethyl-N-[2-(2-methyl-3-pyridyl)-1H-pyrrolo[2,3-b]pyridin-5-yl]-1H-pyrazole-5-carboxamide]	< 10
Cc1nn(C2CCNCC2)cc1-c1cc2cc(NC(=O)c3n[nH]c(C)c3C)cnc2[nH]1 [P-2201, 4,5-dimethyl-N-(2-(3-methyl-1-(piperidin-4-yl)-1H-pyrazol-4-yl)-1H-pyrrolo[2,3-b]pyridin-5-yl)-1H-pyrazole-3-carboxamide]	< 10
O=C(Nc1cnc2[nH]c(-c3ccc(F)cc3)cc2c1)c1ncn[nH]1 [P-2035, N-[2-(4-fluorophenyl)-1H-pyrrolo[2,3-b]pyridin-5-yl]-1H-1,2,4-triazole-5-carboxamide]	< 10
Cc1n[nH]c(C(=O)Nc2cnc3[nH]c(-c4ccc(P(C)(C)=O)cc4)cc3c2)c1C [P-2127, N-[2-(4-dimethylphosphorylphenyl)-1H-pyrrolo[2,3-b]pyridin-5-yl]-3,4-dimethyl-1H-pyrazole-5-carboxamide]	< 10
CCc1n[nH]c(C(=O)Nc2cnc3[nH]c(-c4ccc(F)cc4)cc3c2)c1Cl [P-2173, 4-chloro-3-ethyl-N-[2-(4-fluorophenyl)-1H-pyrrolo[2,3-b]pyridin-55-yl]-1H-pyrazole-5-carboxamide]	< 10
